{
  "source": "patent US20160113890A1",
  "about": "“COMPOSITION FOR STIMULATING NEOVASCULARIZATION AT A SITE IN A SUBJECT COMPRISING DAPSONE AND USE THEREOF” (Samsung Electronics Co., Ltd., priority 2014, published 2016)",
  "key": {"VEGF": {"tested_on": "VEGF", "test": "Microarray analysis of gene expression in soleus muscle (VEGF)", "type": "in vivo, mouse", "settings": "middle (15 month-old) and old (20 month-old) mice, 2.0 mg/kg/d for 3 months", "procedure": "(§1) In FIG. 9, a vertical axis denotes an expression amount of VEGF or Tie2 gene (fluorescent intensity: arbitrary unit), and a horizontal axis denotes a mouse subject. […] The microarray analysis was performed by using Agilent's Mouse Oligo Microarray (44K, Agilent Technology). 5 months-old, 15 months-old, and 20 months-old C57BL/6J mice had 2 mg/kg/d of dapsone for 3 months. […] After the 3 months, the 8 months-old, 18 months-old, and 23 months-old mice were anesthetized by injecting Entobar (sodium pentobarbital, 100 mg/kg per body weight), and then soleus muscle taken therefrom for microarray analysis was frozen. Ribonucleic acid was isolated from the muscle and used for the microarray analysis."}, "C57BL/6 mice [1]": {"tested_on": "C57BL/6 mice", "test": "Fluorescein-lectin tracking and immunohistochemical assay on pancreas section", "type": "in vivo, mouse", "settings": "old mice, 2.0 mg/kg/d for 3 months", "procedure": "(§2) C57BL/6 mice (hereinafter, also referred to as “B6”) at ages of 7 months and 24 months (female n=18, male n=12, Korean Basic Science Institute) were maintained according to the guideline of the Laboratory Animal Research Center of Sungkyunkwan University School of Medicine. The mice were allowed to have free access to water and feed. Each group of mice (n=5) drank 0.0, 0.5, or 2.0 mg/kg/day of dapsone (available from Tai Guk Pharm. Co.) for 3 months.\n(§3) After 3 months, ear skin from both ears, trachea, both retinas, both kidneys, and pancreas were obtained from a mouse selected from each group of mice. In order to obtain these organs, the mouse was anesthetized by intraperitoneal injection of 100 mg/kg of […] (Entobal®) based on the weight of the mouse, […] of 1% paraformaldehyde was flowed through the heart to remove the blood in the body of the mouse. The organs were surgically obtained, and tissue from each of the organs was fixed in 4% of paraformaldehyde for 24 hours to prepare a frozen section having a thickness of 10 um. Immunofluorescence staining using anti-PECAM-1 antibody was performed on a sample of the frozen section. […] The measured fluorescent density denotes a density of endothelial cells, that is, blood vessels. […]"}, "C57BL/6 mice [2]": {"tested_on": "C57BL/6 mice", "test": "Immunohistochemical assay (anti-PECAM-1) on trachea whole-mount of mouse", "type": "in vivo", "procedure": "as §2\nAfter 3 months, ear skin from both ears, trachea, both retinas, both kidneys, and pancreas were obtained from a mouse selected from each group of mice. In order to obtain these organs, the mouse was anesthetized by intraperitoneal injection of 100 mg/kg of […] (Entobal®) based on the weight of the mouse, […] of 1% paraformaldehyde was flowed through the heart to remove the blood in the body of the mouse. The organs were surgically obtained, and tissue from each of the organs was fixed in 4% of paraformaldehyde for 24 hours to prepare a frozen section having a thickness of 10 um. Immunofluorescence staining using anti-PECAM-1 antibody was performed on a sample of the frozen section. For the immunofluorescence staining, the sample was blocked in a solution containing 5% donkey serum in phosphate buffered solution (PBS) containing 0.3% Triton-X 100 (0.3% PBST) for 1 hour. The anti-PECAM-1 antibody produced from American hamster was added to the solution to allow a primary reaction with antigen of the tissue at 4° C. for 12 hours. The sample was washed 6 times for 10 minutes with 0.3% PBS-T, and an anti-American hamster-Alexa594 antibody was added to 0.3 PBS-T to allow a secondary reaction with the anti-PECAM-1 antibody at 4° C. for 12 hours. The sample was washed 6 times for 10 minutes, attached to a slide glass, and thus image of the stained sample was obtained by a Carl Zeiss LSM710 confocal microscope. Each of the images was sequentially taken with respect to the tissue having a thickness in a range of about 100 um to about 300 um as an axis, and then all the sub-images were projected in a z-axis direction. Thus the image is a projection image. Platelet endothelial cell adhesion molecule (PECAM-1) is also referred to as cluster of differentiation 31 (CD31), which is found in platelets or monocytes and on a surface of some types of T-cells, and constitutes most of endothelial cell intercellular junction. […] The measured fluorescent density denotes a density of endothelial cells, that is, blood vessels. Also, in terms of kidney tissue sections and pancreas tissue section, Fluorescein labeled Lycopersicon esculentum (tomato) lectin (hereinafter, also referred to as “Fluorescein-lectin”) was used as a tracer to verify blood vessel functionality of the sample. […]"}, "C57BL/6 mice [3]": {"tested_on": "C57BL/6 mice", "test": "Immunohistochemical assay (anti-PECAM-1) on mouse ear skin whole-mount", "type": "in vivo", "procedure": "as §2\nAfter 3 months, ear skin from both ears, trachea, both retinas, both kidneys, and pancreas were obtained from a mouse selected from each group of mice. In order to obtain these organs, the mouse was anesthetized by intraperitoneal injection of 100 mg/kg of […] (Entobal®) based on the weight of the mouse, […] of 1% paraformaldehyde was flowed through the heart to remove the blood in the body of the mouse. The organs were surgically obtained, and tissue from each of the organs was fixed in 4% of paraformaldehyde for 24 hours to prepare a frozen section having a thickness of 10 um. Immunofluorescence staining using anti-PECAM-1 antibody was performed on a sample of the frozen section. For the immunofluorescence staining, the sample was blocked in a solution containing 5% donkey serum in phosphate buffered solution (PBS) containing 0.3% Triton-X 100 (0.3% PBST) for 1 hour. The anti-PECAM-1 antibody produced from American hamster was added to the solution to allow a primary reaction with antigen of the tissue at 4° C. for 12 hours. The sample was washed 6 times for 10 minutes with 0.3% PBS-T, and an anti-American hamster-Alexa594 antibody was added to 0.3 PBS-T to allow a secondary reaction with the anti-PECAM-1 antibody at 4° C. for 12 hours. The sample was washed 6 times for 10 minutes, attached to a slide glass, and thus image of the stained sample was obtained by a Carl Zeiss LSM710 confocal microscope. […] The measured fluorescent density denotes a density of endothelial cells, that is, blood vessels. […]"}, "C57BL/6 mice [4]": {"tested_on": "C57BL/6 mice", "test": "Fluorescein-lectin tracking and immunohistochemical assay on kidney section", "type": "in vivo, mouse", "settings": "old mice, 2.0 mg/kg/d for 3 months", "procedure": "as §2, §3"}, "VEGFR2": {"tested_on": "VEGFR2", "test": "Phosphorylation-specific antibody array of soleus muscle protein", "type": "in vivo, mouse", "settings": "20 month-old C57BL/6J mice, 2.0 mg/kg/d for 3 months", "procedure": "In FIG. 10, a vertical axis denotes the amount of protein expressed in the experimental group compared to the control group (fluorescent intensity: arbitrary unit), and a horizontal axis denotes the type of phosphorylated protein measured, where the description in parentheses informs residue and location of the phosphorylated amino acid. […] The microarray analysis was performed by using a Phospho Explorer Antibody array (1312 antibodies, FULL MOON Biosystems), soleus muscle of the mice was obtained, protein was isolated therefrom, and used for the microarray analysis. In FIG. 10, p-VR1 and p-VR2 respectively denote phosphorylated VEGFR1 and VEGFR2."}, "Tie2": {"tested_on": "Tie2", "test": "Microarray analysis of gene expression in soleus muscle (Tie2)", "type": "in vivo, mouse", "settings": "middle (15 month-old) and old (20 month-old) mice, 2.0 mg/kg/d for 3 months", "procedure": "as §1"}, "[5]": {"settings": "old mice (27 months-old), 2.0 mg/kg/d for 3 months (O2 vs O0)"}},
  "data": [
    {"molecule": "Nc1ccc(S(=O)(=O)c2ccc(N)cc2)cc1", "note": "[dapsone, 4-[(4-aminobenzene)sulfonyl]aniline]", "values": [
      {"measurement": "expression of VEGF gene vs control groups", "setting": "VEGF", "result": "increased"},
      {"measurement": "amount of blood vessels with decreased functionality (Fluorescein-lectin negative)", "setting": "C57BL/6 mice [1]", "result": "reduced"},
      {"measurement": "blood vessel density (PECAM-1 Alexa 594 fluorescence intensity) vs control group", "setting": "C57BL/6 mice [2]; old mice (27 months-old), 0.5 mg/kg/d for 3 months (O0.5 vs O0)", "result": "significant difference"},
      {"measurement": "blood vessel density (PECAM-1 Alexa 594 fluorescence intensity) vs control group", "setting": "C57BL/6 mice [2]; [5]", "result": "significant difference"},
      {"measurement": "blood vessel density (PECAM-1 Alexa 594 fluorescence intensity) vs control group", "setting": "C57BL/6 mice [2]; young mice (7 months-old), 0.5 mg/kg/d in drinking water for 3 months (Y0.5 vs Y0)", "result": "no significant difference"},
      {"measurement": "blood vessel density (PECAM-1 Alexa 594 fluorescence intensity) vs control group", "setting": "C57BL/6 mice [2]; young mice (7 months-old), 2.0 mg/kg/d in drinking water for 3 months (Y2 vs Y0)", "result": "no significant difference"},
      {"measurement": "blood vessel density (PECAM-1 Alexa 594 fluorescence intensity) vs control group", "setting": "C57BL/6 mice [3]; [5]", "result": "significant difference"},
      {"measurement": "blood vessel density (PECAM-1 Alexa 594 fluorescence intensity) vs control group", "setting": "C57BL/6 mice [3]; young mice (7 months-old), 0.5 mg/kg/d for 3 months (Y0.5 vs Y0)", "result": "no significant difference"},
      {"measurement": "blood vessel density (PECAM-1 Alexa 594 fluorescence intensity) vs control group", "setting": "C57BL/6 mice [3]; young mice (7 months-old), 2.0 mg/kg/d for 3 months (Y2 vs Y0)", "result": "no significant difference"},
      {"measurement": "blood vessel functionality (Fluorescein-lectin perfusion of PECAM-1 positive vessels)", "setting": "C57BL/6 mice [4]", "result": "recovered to the similar level of the control group"},
      {"measurement": "phosphorylation of VEGFR2 at T1175, T1059 and T1054 vs control group", "setting": "VEGFR2", "result": "significantly increased phosphorylation"},
      {"measurement": "level of Tie2 gene expression vs control groups", "setting": "Tie2", "result": "did not change significantly"}
    ]}
  ]
}
